From article PMC6271933, “Evaluation of the Toxicity of 5-Aryl-2-Aminoimidazole-Based Biofilm Inhibitors against Eukaryotic Cell Lines, Bone Cells and the Nematode Caenorhabditis elegans” (Molecules, 2014)
Several values for one entry are separate records, joined by “and”; a condition that tells them apart may be missing. Identical values can stand only once.

Key:
C. elegans = format: in vivo, Caenorhabditis elegans; conditions: for C. elegans % survival at 25 µM: after 7 days relative to viability at day 0, mean of at least two repeats
Experimental: Eggs of a double mutant (glp-4Dsek-1D) of C. elegans were grown on NGM/OP50 agar plates (NGM agar plates on the surface inoculated with 100 µL of an overnight culture of OP50 Escherichia coli and stored at 4 °C until use) at 25 °C until all nematodes had reached the L4 stage. Worms were collected and washed with M9 buffer (3 g/L KH2PO4, 6 g/L Na2HPO4, 5 g/L NaCl, 1 mM MgSO4). For toxicity testing, 40 to 50 worms were suspended in 250 μL M9 (supplemented with 10 µg/mL cholesterol, 75 µg/mL ampicillin and 100 µg/mL kanamycin) buffer in each well of 24-well microtiter plates, in the presence or absence (0.5% DMSO control) of 25, 100 or 200 µM of the test compounds and grown for 7 days at 25 °C. The percentage survival of the worms in the presence or absence of anti-biofilm compounds was calculated after 7 days relative to their viability at day 0.

P. aeruginosa biofilm = conditions: concentration preventing biofilm formation (at 25 °C) by 50%; as previously reported ref 13, 14, 15, 16; read-out: BIC50 P. aeruginosa; cited from earlier work
S. Typhimurium biofilm = conditions: concentration preventing biofilm formation (at 25 °C) by 50%; as previously reported ref 13, 14, 15, 16; read-out: BIC50 S. Typhimurium; cited from earlier work
[1] = system: human cervix carcinoma (HeLa); test: Cytostatic activity against tumor cell lines (cell number by Coulter counter); format: cell-based; conditions: 96 h, concentration inhibiting cell proliferation by 50%, four days incubation, mean of three repeats
Experimental: (§1) The IC50 was defined as the compound concentration required to inhibit cell proliferation by 50%. The therapeutic index (TI) was calculated as the ratio of the compound concentration producing toxicity (IC50) to the concentration needed to exert the desired ‘therapeutic’ effect on biofilms of Salmonella and Pseudomonas, indicated by the BIC50 (dose needed to prevent biofilm formation by 50%). The higher the therapeutic index, the broader the safety window of the compound.
(§2) Murine leukemia (L1210), human T-lymphocyte (CEM) and human cervix carcinoma (HeLa) were suspended at 300,000–500,000 cells/mL of culture medium, and 100 µL of a cell suspension was added to 100 µL of an appropriate dilution of the test compounds in 200 µL-wells of 96-well microtiter plates. After incubation at 37 °C for two (L1210), three (CEM) or four (HeLa) days, the cell number was determined using a Coulter counter. The IC50 was defined as the compound concentration required to inhibit cell proliferation by 50%.

murine leukemia (L1210) = test: as above; format: cell-based; conditions: Mus musculus, L1210, 48 h; concentration inhibiting cell proliferation by 50%; two days incubation; mean of three repeats
Experimental: as §1, §2

human T-lymphocyte (CEM) = test: as above; format: cell-based; conditions: 72 h, concentration inhibiting cell proliferation by 50%, three days incubation, mean of three repeats
Experimental: as §1, §2

Row | SMILES | C. elegans % survival at 25 µM (C. elegans) [%] | effect on C. elegans survival at 100 µM (C. elegans; 100 µM, 7 days of exposure) | effect on C. elegans survival at 200 µM (C. elegans; 200 µM, 7 days of exposure) | IC50 (P. aeruginosa biofilm) [µM] | IC50 (S. Typhimurium biofilm) | IC50 [1] [µM] | IC50 (murine leukemia (L1210)) [µM] | IC50 (human T-lymphocyte (CEM)) [µM]
1 | Nc1ncc(-c2ccccc2)[nH]1 [compound 1] | 89.8 | none of the compounds significantly affect | do not significantly affect survival | 72.6 | 130 µM | 145 | 62.9 | 94.3
2 | Nc1ncc(-c2ccc(Cl)cc2)[nH]1 [compound 2] | 84.9 | – | – | 3.5 | 16 µM | 72.3 | 77.5 | 49.6
3 | Nc1ncc(-c2ccc(-c3ccccc3)cc2)[nH]1 [compound 3] | – | – | – | 8.6 | 17.3 µM | 34 | 37.4 | 13.6
4 | Nc1ncc(-c2ccc([N+](=O)[O-])cc2)[nH]1 [compound 4] | 97.3 | – | – | 34.5 | 17.6 µM | 108 | 83.3 | 63.7
5 | Nc1ncc(-c2ccc(Br)cc2)[nH]1 [compound 5, 5-(p-bromophenyl)-2-aminoimidazole] | 90.6 | – | – | 3.2 | 47.9 µM | 21.8 | 10.1 | 13.9
6 | CCCCCCCCn1c(-c2ccccc2)cnc1N [compound 6] | 92.5 | – | – | 18.5 | 11.9 µM | 3 | 3.2 | 468
7 | CCCCCCCCCCCCCn1c(-c2ccc(Cl)cc2)cnc1N [compound 8] | – | – | – | 33.9 | 19.5 µM | 4.5 | 7.2 | 6.4
8 | CCCCCCCn1c(-c2ccc(-c3ccccc3)cc2)cnc1N [compound 9] | – | – | – | 25.2 | 9.3 µM | 8.7 | 7.5 | 8.1
9 | CCCCCCCCn1c(-c2ccc(-c3ccccc3)cc2)cnc1N [compound 10] | – | – | – | 8.9 | 3.3 µM | 6.6 | 7.8 | 8.3
10 | Nc1ncc(-c2ccc(-c3ccccc3)cc2)n1C1CCCC1 [compound 11] | – | – | – | 353 | 7.5 µM | 8.2 | 4.3 | 2.9
11 | Nc1ncc(-c2ccc(-c3ccccc3)cc2)n1C1CCCCCC1 [compound 12] | – | – | – | 6.6 | ~12.5 µM and 12.5 µM | 6.6 | 8.1 | 5.4
12 | Nc1ncc(-c2ccc(-c3ccccc3)cc2)n1C1CCCCCCC1 [compound 13] | – | – | – | 3.2 | ~22.9 µM and 22.9 µM | 6.9 | 6.9 | 4.9
13 | CCCCCCCCn1c(-c2ccc(F)cc2)cnc1N [compound 14] | – | – | – | 4.9 | ~10.8 µM and 10.8 µM | 8.6 | 3.5 | 7.3
14 | CCCCCCCCn1c(-c2ccc(SC)cc2)cnc1N [compound 15, N1-octyl-5-[4-SMePh]-2AI] | – | – | – | 2.8 | 6.7 µM | 6.3 | 4.1 | 7.2
15 | CCCCCCCCn1c(-c2cccc(Br)c2)cnc1N [compound 16] | – | – | – | 40.6 | 11.2 µM | 8 | 6.9 | 9.7
16 | COc1cccc(CCn2c(-c3ccc(Cl)c(Cl)c3)cnc2N)c1 [compound 17] | – | – | – | – | > 400 µM | 6.6 | 6.9 | 8.6
17 | CCCCNc1ncc(-c2ccccc2)[nH]1 [compound 18] | – | – | – | 31.8 | 25.3 µM | 19.5 | 46.4 | 667
